Experimental data from ChEMBL document CHEMBL6182949 (J Med Chem, 2025).
≈ marks a conversion by molar mass, not a printed value. Calls of active or inactive are those of the source. No cut-off for these calls is given here.

Columns and labels:
[1] = Half life in cynomolgus monkey at 20 mg/kg, po measured up to 24 hrs by LC-MS/MS analysis; type: ADME, organism-based, Macaca fascicularis; conditions: in vivo
[2] = test system: Mus musculus; test: Anti-arthritic activity against collagen-induced arthritis DBA/1 mouse model assessed as reduction in pathological score at 30 mg/kg, po administered for 14 days; type: functional, organism-based; conditions: time 14.0 day
[3] = test system: Mus musculus; test: Anti-psoriasis effect in IMQ-induced C57BL/6 mouse assessed as reduction in spleen weight at 100 mg/kg administered topically twice daily for 6 days and measured after 24 hrs; type: functional, organism-based; conditions: time 7.0 day
[4] = Metabolic stability in dog liver microsome assessed as half life at 1 uM measured up to 60 mins in presence of NADPH by LC-MS/MS analysis; type: ADME, Canis lupus familiaris; conditions: liver microsomes
[5] = Cmax in Sprague-Dawley rat at 2 mg/kg, iv measured up to 24 hrs by LC-MS/MS analysis; type: ADME, organism-based; conditions: in vivo
[6] = Metabolic stability dog hepatocyte assessed as half life at 1 uM measured up to 120 mins by LC-MS/MS analysis; type: ADME, cell-based, Canis lupus familiaris; conditions: hepatocytes
[7] = target: Protein cereblon/Interleukin-1 receptor-associated kinase 4 (Homo sapiens, UniProt Q9NWZ3+Q96SW2); test: PROTAC activity at CRBN/IRAK4 in human PBMC cells assessed as induction of IRAK4 degradation incubated for 24 hrs by HiBiT lytic reagent based analysis relative to control; type: cell-based
[8] = Metabolic stability in rat liver microsome assessed as half life at 1 uM measured up to 60 mins in presence of NADPH by LC-MS/MS analysis; type: ADME; conditions: liver microsomes
[9] = target: T1, Protein cereblon/Interleukin-1 receptor-associated kinase 4 (Mus musculus, UniProt Q8C7D2+Q8R4K2); test: PROTAC activity at CRBN/IRAK4 in mouse PBMC cells assessed as induction of IRAK4 degradation incubated for 24 hrs by HiBiT lytic reagent based analysis; type: cell-based
T1 sequence (Q8C7D2 whole entry): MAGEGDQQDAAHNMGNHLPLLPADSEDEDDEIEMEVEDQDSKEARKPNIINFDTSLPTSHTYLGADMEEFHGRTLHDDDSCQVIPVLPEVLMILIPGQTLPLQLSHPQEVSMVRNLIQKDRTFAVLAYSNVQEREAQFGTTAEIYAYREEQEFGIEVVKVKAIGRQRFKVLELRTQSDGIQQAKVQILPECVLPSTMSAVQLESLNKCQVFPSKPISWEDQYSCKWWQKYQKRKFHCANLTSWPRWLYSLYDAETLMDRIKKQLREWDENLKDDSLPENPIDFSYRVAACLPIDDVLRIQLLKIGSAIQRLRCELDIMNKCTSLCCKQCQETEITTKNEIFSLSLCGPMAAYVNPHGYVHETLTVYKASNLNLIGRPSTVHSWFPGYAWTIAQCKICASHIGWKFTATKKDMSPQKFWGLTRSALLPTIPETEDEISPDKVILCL
T1 sequence (Q8R4K2 whole entry): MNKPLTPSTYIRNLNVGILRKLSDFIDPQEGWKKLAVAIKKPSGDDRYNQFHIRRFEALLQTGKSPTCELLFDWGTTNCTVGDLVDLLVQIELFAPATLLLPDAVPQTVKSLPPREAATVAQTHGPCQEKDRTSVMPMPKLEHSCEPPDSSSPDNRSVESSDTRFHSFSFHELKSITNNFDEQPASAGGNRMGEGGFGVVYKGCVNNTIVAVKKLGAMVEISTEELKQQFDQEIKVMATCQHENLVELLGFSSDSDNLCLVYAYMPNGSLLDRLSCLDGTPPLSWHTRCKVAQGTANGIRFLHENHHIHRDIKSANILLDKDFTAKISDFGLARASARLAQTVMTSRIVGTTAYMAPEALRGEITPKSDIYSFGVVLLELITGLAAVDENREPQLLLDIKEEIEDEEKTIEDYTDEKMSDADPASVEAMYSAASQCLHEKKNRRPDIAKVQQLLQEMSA

[10] = Tmax in cynomolgus monkey at 20 mg/kg, po measured up to 24 hrs by LC-MS/MS analysis; type: ADME, organism-based, Macaca fascicularis; conditions: in vivo
[11] = Cmax in cynomolgus monkey at 20 mg/kg, po measured up to 24 hrs by LC-MS/MS analysis; type: ADME, organism-based, Macaca fascicularis; conditions: in vivo
[12] = Kinetic solubility of compound in PBS buffer at pH 7.4 incubated for 2 hr by LC-MS analysis; type: physicochemical; conditions: read-out: Kinetic_solubility
[13] = AUClast in Beagle dog at 2 mg/kg, iv measured up to 24 hrs by LC-MS/MS analysis; type: ADME, organism-based, Canis lupus familiaris; conditions: in vivo
[14] = test system: Mus musculus; test: Anti-psoriasis effect in IMQ-induced C57BL/6 mouse assessed as reduction in ear thickness at 10 mg/kg administered topically twice daily for 6 days and measured after 24 hrs; type: functional, organism-based; conditions: time 7.0 day
[15] = AUClast in male C57BL/6 mouse at 2 mg/kg, iv measured up to 24 hrs by LC-MS/MS analysis; type: ADME, organism-based; conditions: in vivo
[16] = target: Protein cereblon/Zinc finger protein Aiolos (Homo sapiens) (UniProt Q96SW2+Q9UKT9); test: PROTAC activity at CRBN/IKZF3 in human PBMC cells assessed as induction of SALL4 degradation at 1 uM by Western blot analysis; type: cell-based
[17] = Plasma protein binding in mouse assessed as unbound fraction incubated for 2 hrs by rapid equilibrium dialysis; type: ADME, cell-free
[18] = Half life in Sprague-Dawley rat at 2 mg/kg, iv measured up to 24 hrs by LC-MS/MS analysis; type: ADME, organism-based; conditions: in vivo
[19] = Cmax in male C57BL/6 mouse at 10 mg/kg, po measured up to 24 hrs by LC-MS/MS analysis; type: ADME, organism-based; conditions: in vivo
[20] = AUClast in cynomolgus monkey at 1 mg/kg, iv measured up to 24 hrs by LC-MS/MS analysis; type: ADME, organism-based, Macaca fascicularis; conditions: in vivo
[21] = Volume of distribution at steady state in cynomolgus monkey at 1 mg/kg, iv measured up to 24 hrs by LC-MS/MS analysis; type: ADME, organism-based, Macaca fascicularis; conditions: in vivo, read-out: Vdss
[22] = target: Protein cereblon/Interleukin-1 receptor-associated kinase 4 (Macaca fascicularis) (UniProt A0A2K5UTB3+A0A2K5V3Y9); test: PROTAC activity at CRBN/IRAK4 in cynomolgus monkey PBMC assessed as reduction in IRAK4 level measured at 48 hrs by immunoblotting analysis; type: cell-based; design: scale not given: the % may be the effect or the level left
[23] = target: Protein cereblon/Interleukin-1 receptor-associated kinase 4 (Mus musculus) (UniProt Q8C7D2+Q8R4K2); test: PROTAC activity at CRBN/IRAK4 in mouse PBMC cells assessed as induction of IRAK4 degradation incubated for 24 hrs by HiBiT lytic reagent based analysis relative to control; type: cell-based
[24] = Cmax in Beagle dog at 10 mg/kg, po measured up to 24 hrs by LC-MS/MS analysis; type: ADME, organism-based, Canis lupus familiaris; conditions: in vivo
[25] = Volume of distribution at steady state in Beagle dog at 2 mg/kg, iv measured up to 24 hrs by LC-MS/MS analysis; type: ADME, organism-based, Canis lupus familiaris; conditions: in vivo
[26] = test system: Mus musculus; test: Anti-psoriasis effect in IMQ-induced C57BL/6 mouse assessed as reduction in ear thickness at 100 mg/kg administered topically twice daily for 6 days and measured after 24 hrs; type: functional, organism-based; conditions: time 7.0 day
[27] = Permeability across basolateral to apical side in human Caco-2 cells incubated for 120 mins by LC-MS/MS analysis; type: ADME, cell-based; conditions: read-out: permeability

Protein cereblon/Zinc finger protein Aiolos (Homo sapiens), sequence (Q96SW2 whole entry, looked up): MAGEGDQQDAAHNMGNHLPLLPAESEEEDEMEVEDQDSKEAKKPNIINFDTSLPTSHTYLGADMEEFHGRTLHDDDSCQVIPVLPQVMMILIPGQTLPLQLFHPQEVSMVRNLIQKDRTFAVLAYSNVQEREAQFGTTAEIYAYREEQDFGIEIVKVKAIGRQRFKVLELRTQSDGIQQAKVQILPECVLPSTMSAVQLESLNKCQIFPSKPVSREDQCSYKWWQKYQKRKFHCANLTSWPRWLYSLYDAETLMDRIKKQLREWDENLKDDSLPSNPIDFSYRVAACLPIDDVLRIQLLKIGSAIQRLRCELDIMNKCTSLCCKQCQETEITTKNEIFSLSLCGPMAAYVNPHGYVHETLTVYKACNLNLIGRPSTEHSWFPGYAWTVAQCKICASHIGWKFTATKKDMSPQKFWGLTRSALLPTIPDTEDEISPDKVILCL
Protein cereblon/Zinc finger protein Aiolos (Homo sapiens), sequence (Q9UKT9 whole entry, looked up): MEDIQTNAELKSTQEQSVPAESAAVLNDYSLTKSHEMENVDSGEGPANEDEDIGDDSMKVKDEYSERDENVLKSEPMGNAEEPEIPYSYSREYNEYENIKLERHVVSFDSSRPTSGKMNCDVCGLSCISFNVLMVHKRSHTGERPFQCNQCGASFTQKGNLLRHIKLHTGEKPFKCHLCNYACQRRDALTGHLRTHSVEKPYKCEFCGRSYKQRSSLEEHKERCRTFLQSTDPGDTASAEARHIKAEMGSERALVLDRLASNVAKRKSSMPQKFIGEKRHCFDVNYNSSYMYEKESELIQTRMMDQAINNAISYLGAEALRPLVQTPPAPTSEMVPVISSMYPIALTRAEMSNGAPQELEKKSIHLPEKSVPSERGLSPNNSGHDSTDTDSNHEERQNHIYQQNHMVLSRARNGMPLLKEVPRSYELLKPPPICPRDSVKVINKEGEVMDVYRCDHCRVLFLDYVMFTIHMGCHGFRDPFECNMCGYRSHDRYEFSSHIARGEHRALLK
Protein cereblon/Interleukin-1 receptor-associated kinase 4 (Homo sapiens, UniProt Q9NWZ3+Q96SW2), sequence (Q96SW2 whole entry, looked up): as the sequence (Q96SW2 whole entry, looked up) above
Protein cereblon/Interleukin-1 receptor-associated kinase 4 (Homo sapiens, UniProt Q9NWZ3+Q96SW2), sequence (Q9NWZ3 whole entry, looked up): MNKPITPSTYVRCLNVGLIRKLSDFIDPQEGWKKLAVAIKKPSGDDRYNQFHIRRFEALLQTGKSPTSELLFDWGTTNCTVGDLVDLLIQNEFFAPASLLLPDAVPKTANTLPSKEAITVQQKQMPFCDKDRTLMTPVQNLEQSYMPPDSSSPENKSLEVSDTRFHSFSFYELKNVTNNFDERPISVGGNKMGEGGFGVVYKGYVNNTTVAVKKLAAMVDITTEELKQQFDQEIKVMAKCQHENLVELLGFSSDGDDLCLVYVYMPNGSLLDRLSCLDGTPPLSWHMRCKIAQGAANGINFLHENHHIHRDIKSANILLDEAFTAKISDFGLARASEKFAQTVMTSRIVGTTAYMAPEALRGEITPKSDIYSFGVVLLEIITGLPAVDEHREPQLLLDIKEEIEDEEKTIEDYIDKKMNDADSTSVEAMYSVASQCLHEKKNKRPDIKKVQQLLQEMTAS
Protein cereblon/Interleukin-1 receptor-associated kinase 4 (Macaca fascicularis), sequence (A0A2K5UTB3 1-488): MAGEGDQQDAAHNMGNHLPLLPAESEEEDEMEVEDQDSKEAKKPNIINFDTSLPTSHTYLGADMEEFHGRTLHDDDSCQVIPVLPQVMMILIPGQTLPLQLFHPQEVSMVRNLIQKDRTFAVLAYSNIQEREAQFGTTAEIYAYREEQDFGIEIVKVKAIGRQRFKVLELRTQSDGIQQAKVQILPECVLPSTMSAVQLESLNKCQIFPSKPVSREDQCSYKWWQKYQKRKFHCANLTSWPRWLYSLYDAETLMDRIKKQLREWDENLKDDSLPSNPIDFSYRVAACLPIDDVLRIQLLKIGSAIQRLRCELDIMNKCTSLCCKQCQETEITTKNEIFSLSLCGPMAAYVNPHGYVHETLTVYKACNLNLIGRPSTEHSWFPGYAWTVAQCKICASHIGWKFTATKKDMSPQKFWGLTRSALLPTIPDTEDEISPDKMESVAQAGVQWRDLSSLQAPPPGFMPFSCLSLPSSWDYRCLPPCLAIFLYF
Protein cereblon/Interleukin-1 receptor-associated kinase 4 (Macaca fascicularis), sequence (A0A2K5V3Y9 1-460 partner): as the sequence (Q9NWZ3 whole entry, looked up) above, with I118V, C128Y, V138L, P148L, T208A, A459D counted along it

Cn1c(=O)n(C2CCC(=O)NC2=O)c2cccc(C#CCO[C@H]3CC[C@H](CN4CCC5(CC4)Cc4cc(NC(=O)c6coc7cccnc67)c(N6CCC(CO)CC6)cc4O5)CC3)c21 (some centres not stated)
half-life [1]: 9.07 h | Activity [2]: Active | Activity [3]: Active | half-life at 1 µM [4]: > 3.07 h | Cmax [5]: 14.2 ng/mL | half-life at 1 µM [6]: > 6.18 h | Emax [7]: 94% | half-life at 1 µM [8]: > 3.07 h | DC50 [9]: 3.57 nM | Tmax [10]: 6 h | Cmax [11]: 229 ng/mL | solubility kinetic at 2 h [12]: 0.97 µg/mL (≈ 1.11 µM) | AUC(0-t) at 24 h [13]: 2670 ng·h/mL | Activity [14]: Active | AUC(0-t) at 24 h [15]: 10600 ng·h/mL | Activity [16]: inactive | Fu [17]: 0.09% | half-life [18]: 4 h | Cmax [19]: 1070 ng/mL | AUC(0-t) at 24 h [20]: 1820 ng·h/mL | Vd [21]: 3.85 L/kg | Activity [22]: 83% | Emax [23]: 82% | Cmax [24]: 360 ng/mL | Vdss [25]: 73 L/kg | Activity [26]: Active | Papp B→A at 2 h [27]: 0.2 ×10⁻⁶ cm/s
